# Measurements published in article PMC6172315, “Relative Selectivity of Plant Cardenolides for Na^+/K^+-ATPases From the Monarch Butterfly and Non-resistant Insects” (Frontiers in Plant Science, 2018).
# “Also recorded” adds a separate entry of the source. Where two headings read alike, the source gives them in different places.
# Experiments:
# Type in all cases: biochemical
# [1] = biological target: D. plexippus-Na^+/K^+-ATPase (Danaus plexippus, UniProt K0G7C4); experiment: In vitro inhibition assay of D. plexippus Na+/K+-ATPase (phosphate release); details: for inhibition of D. plexippus Na^+/K^+-ATPase compared to ouabain: DP, F-test comparison of entire dose-response curves with ouabain; for fold difference between IC50 values, non-adapted (E. core/S. gregaria) vs adapted (D. plexippus) insect Na^+/K^+-ATPase: Figure 2, last number, S. gregaria values used for ouabain and digitoxigenin; for IC50: read-out: IC50 D. plexippus- Na^+/K^+-ATPase, Na+/K+-ATPase extracted from butterfly brains
# Chain of D. plexippus-Na^+/K^+-ATPase (K0G7C4 1-1009): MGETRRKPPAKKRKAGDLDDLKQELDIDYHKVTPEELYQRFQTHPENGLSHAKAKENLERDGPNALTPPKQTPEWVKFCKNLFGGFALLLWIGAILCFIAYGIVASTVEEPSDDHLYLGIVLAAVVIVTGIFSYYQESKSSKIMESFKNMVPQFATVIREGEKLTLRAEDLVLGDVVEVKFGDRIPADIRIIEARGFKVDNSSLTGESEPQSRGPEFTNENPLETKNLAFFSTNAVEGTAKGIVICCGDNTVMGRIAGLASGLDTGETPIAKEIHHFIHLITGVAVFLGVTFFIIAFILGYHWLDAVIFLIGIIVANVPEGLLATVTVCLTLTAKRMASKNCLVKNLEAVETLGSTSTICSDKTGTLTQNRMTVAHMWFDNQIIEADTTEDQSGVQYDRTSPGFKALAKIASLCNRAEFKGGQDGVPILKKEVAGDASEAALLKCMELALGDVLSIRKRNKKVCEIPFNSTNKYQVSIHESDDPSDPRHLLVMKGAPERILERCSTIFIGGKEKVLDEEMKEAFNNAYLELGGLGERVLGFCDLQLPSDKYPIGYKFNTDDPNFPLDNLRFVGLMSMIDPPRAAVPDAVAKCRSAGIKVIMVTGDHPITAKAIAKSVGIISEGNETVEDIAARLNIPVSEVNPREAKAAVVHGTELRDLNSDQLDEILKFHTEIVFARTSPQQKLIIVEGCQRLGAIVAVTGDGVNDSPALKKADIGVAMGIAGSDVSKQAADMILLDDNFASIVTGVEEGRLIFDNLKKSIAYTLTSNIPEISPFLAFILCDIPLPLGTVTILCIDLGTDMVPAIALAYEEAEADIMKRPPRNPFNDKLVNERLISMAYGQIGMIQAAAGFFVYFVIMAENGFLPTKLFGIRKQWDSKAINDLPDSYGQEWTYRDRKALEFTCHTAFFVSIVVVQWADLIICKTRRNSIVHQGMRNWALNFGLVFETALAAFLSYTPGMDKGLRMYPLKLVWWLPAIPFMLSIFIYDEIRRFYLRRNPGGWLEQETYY
# Method: (§1) Danaus plexippus was caught in the field or purchased; E. core and S. gregaria were obtained commercially, with additional E. core from a laboratory colony. […] Briefly, brains dissected from butterflies stored at -80°C or recta from locusts were homogenized (individually or pooled) with an all glass grinder (Wheaton) in deionized water, frozen at -80°C, freeze-dried, and stored frozen until use. For in vitro assays, lyophilisates were dissolved in water, sonicated in an ultrasonic bath, and centrifuged to remove undissolved matter. All cardiac glycosides were tested at least with three biological replicates of Na^+/K^+-ATPase (i.e., Na^+/K^+-ATPase from genetically different specimens or pools of specimens).
# (§2) Means of duplicate determinations (i.e., technical replicates) were used as data points. In consequence, each data point of a dose–response curve is the mean of at least three biological replicates based on two technical replicates, each. […] Here, technical replicates collected on the same 96-well plate were averaged and used as data points.
# (§3) Stock solutions of cardiac glycosides, as well as pregnane glycosides, were prepared from crystalline compounds in DMSO. While concentrations of all other compounds were based on mass, calactin, and calotropin stock solutions were adjusted with HPLC using digitoxin as a reference.
# (§4) Pairwise statistical comparisons of dose-response curves were carried out using the “compare datasets” option in OriginPro, which is based on an F-Test evaluating if the two curves are identical. Correlation analyses using log10-transformed IC50 values was also carried out with OriginPro. […] To analyze relative selectivity without a reference, we also plotted the fold differences between the IC50 values of individual cardenolides for non-adapted and adapted insect Na^+/K^+-ATPase and compared them to mammalian (lamb) Na^+/K^+-ATPase (Figure 2).
# [2] = biological target: E. core-Na^+/K^+-ATPase (Euploea core, UniProt A0A5C0C9F5); experiment: In vitro inhibition assay of E. core Na+/K+-ATPase (phosphate release); details: for inhibition of E. core Na^+/K^+-ATPase compared to ouabain: EC, F-test comparison of entire dose-response curves with ouabain; for IC50: read-out: IC50 E. core- Na^+/K^+-ATPase, Na+/K+-ATPase extracted from butterfly brains
# Chain of E. core-Na^+/K^+-ATPase (A0A5C0C9F5 1-1013): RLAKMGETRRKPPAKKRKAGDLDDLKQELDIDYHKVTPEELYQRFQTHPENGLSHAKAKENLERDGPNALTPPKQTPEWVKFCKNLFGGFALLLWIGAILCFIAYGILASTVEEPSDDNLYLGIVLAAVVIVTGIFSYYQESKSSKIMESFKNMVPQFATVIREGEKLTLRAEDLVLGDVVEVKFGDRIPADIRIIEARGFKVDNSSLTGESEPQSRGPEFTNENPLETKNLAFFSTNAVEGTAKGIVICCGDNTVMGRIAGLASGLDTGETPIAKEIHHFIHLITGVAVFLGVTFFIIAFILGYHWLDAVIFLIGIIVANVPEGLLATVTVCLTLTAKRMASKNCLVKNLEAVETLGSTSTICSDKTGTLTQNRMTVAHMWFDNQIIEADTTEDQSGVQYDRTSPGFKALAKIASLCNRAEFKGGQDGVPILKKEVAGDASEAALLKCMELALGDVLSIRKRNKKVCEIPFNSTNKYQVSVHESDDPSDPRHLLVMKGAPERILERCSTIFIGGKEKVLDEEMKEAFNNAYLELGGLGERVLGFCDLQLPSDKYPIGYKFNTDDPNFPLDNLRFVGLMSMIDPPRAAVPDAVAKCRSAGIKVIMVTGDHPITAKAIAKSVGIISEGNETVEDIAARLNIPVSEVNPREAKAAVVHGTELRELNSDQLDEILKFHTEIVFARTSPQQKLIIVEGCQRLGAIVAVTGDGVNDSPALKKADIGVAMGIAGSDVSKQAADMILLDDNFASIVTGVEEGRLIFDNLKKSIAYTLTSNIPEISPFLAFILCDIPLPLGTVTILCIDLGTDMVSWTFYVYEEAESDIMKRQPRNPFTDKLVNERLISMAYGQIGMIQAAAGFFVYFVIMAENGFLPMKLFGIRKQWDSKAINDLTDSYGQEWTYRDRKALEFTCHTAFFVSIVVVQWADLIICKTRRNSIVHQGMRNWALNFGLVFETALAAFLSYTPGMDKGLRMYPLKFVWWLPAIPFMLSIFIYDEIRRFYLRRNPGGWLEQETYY
# Method: as §1, §2, §3, §4
# [3] = biological target: S. gregaria-Na^+/K^+-ATPase (Schistocerca gregaria, UniProt A0A8E5JSN5)
# Chain of S. gregaria-Na^+/K^+-ATPase (A0A8E5JSN5 1-1039): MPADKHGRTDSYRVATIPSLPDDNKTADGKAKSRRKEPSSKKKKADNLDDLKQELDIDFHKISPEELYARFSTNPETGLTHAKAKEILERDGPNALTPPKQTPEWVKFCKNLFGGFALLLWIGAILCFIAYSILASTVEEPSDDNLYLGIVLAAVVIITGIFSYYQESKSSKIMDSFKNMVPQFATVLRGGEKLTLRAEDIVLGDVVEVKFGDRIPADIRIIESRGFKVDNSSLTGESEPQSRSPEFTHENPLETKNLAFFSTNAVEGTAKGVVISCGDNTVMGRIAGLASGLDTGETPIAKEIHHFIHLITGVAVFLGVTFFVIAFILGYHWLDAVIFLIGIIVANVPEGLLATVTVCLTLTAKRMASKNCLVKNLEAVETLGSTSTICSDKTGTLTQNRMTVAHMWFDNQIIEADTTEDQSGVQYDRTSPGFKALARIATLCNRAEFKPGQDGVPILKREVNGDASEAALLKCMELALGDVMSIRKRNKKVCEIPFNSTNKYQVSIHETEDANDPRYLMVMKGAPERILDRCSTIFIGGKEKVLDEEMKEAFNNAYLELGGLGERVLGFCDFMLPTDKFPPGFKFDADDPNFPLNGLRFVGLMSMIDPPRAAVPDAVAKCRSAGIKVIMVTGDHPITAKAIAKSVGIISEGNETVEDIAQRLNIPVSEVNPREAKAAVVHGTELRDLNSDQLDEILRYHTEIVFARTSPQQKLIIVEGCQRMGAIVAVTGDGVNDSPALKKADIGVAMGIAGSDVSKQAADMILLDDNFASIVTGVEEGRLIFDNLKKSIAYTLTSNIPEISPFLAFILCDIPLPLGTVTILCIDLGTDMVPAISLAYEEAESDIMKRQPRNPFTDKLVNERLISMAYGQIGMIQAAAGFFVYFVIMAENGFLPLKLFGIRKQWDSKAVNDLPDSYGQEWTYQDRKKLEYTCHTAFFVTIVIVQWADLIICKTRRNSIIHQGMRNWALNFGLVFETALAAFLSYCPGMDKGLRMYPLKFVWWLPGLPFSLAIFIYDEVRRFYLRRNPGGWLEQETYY
# Method: as §1, §2, §3, §4
# [4] = tested on: lamb Na^+/K^+-ATPase; experiment: Fold differences of IC50 between lamb and insect Na+/K+-ATPases; details: lamb IC50 inferred from ref Paula et al., 2005
# Method: as §4
# [5] = SG; F-test comparison of entire dose-response curves with ouabain
# [6] = read-out: IC50 S. gregaria- Na^+/K^+-ATPase; Na+/K+-ATPase extracted from locust recta
SMILES,inhibition of D. plexippus Na^+/K^+-ATPase compared to ouabain [1],"fold difference between IC50 values, non-adapted (E. core/S. gregaria) vs adapted (D. plexippus) insect Na^+/K^+-ATPase [1] [x]",IC50 [1] [µM],inhibition of E. core Na^+/K^+-ATPase compared to ouabain [2],IC50 [2] [µM],IC50 ([3]; Na+/K+-ATPase extracted from locust recta; read-out: IC50 S. gregaria- Na^+/K^+-ATPase) [µM],"inhibition of S. gregaria Na^+/K^+-ATPase compared to ouabain [3, 5]","fold difference between IC50 values, lamb vs adapted insect (D. plexippus) Na^+/K^+-ATPase ([4]; Figure 2, first number) [x]","fold difference between IC50 values, lamb vs non-adapted insect (E. core/S. gregaria) Na^+/K^+-ATPase ([4]; Figure 2, second number) [x]",inhibition by glycoside relative to corresponding genin (strophanthidin) on D. plexippus-Na^+/K^+-ATPase ([1]; cymarin vs strophanthidin),"IC50 [3, 6] [µM]"
C[C@@H]1C[C@@H](O)[C@]2(O)O[C@@H]3C[C@@]4(C=O)[C@@H](CC[C@@H]5[C@@H]4CC[C@]4(C)[C@@H](C6=CC(=O)OC6)CC[C@]54O)C[C@H]3O[C@@H]2O1 [calactin],"more potently than ouabain; also recorded: > ouabain; F2,7 = 4706.35, p < 0.001",23,2.15,"more potently than ouabain; also recorded: > ouabain; F2,7 = 496.50, p < 0.001",0.092,,,,,,
C[C@@H]1C[C@H](O)[C@]2(O)O[C@@H]3C[C@@]4(C=O)[C@@H](CC[C@@H]5[C@@H]4CC[C@]4(C)[C@@H](C6=CC(=O)OC6)CC[C@]54O)C[C@H]3O[C@@H]2O1 [calotropin],"> ouabain; F2,7 = 154.4, p < 0.001",17,5.36,"> ouabain; F2,7 = 54.31, p < 0.001",0.323,,,,,,
CO[C@H]1C[C@H](O[C@H]2CC[C@]3(C=O)[C@H]4CC[C@]5(C)[C@@H](C6=CC(=O)OC6)CC[C@]5(O)[C@@H]4CC[C@]3(O)C2)O[C@H](C)[C@H]1O [cymarin],"> ouabain; F2,6 = 514.53, p < 0.001",21,6.99,,,0.334,"> ouabain; F2,6 = 6.37, p = 0.03",36,2,ninefold,
C[C@]12CC[C@H](O)C[C@H]1CC[C@@H]1[C@@H]2CC[C@]2(C)[C@@H](C3=CC(=O)OC3)CC[C@]12O [digitoxigenin],"> ouabain; F2,6 = 54.05, p < 0.001",,24.8,"< ouabain; F2,6 = 180.27, p < 0.001",4.12,,"< ouabain; F2,6 = 17.5, p = 0.003",,,,2.73
"C[C@H]1O[C@@H](O[C@H]2[C@@H](O)C[C@H](O[C@H]3[C@@H](O)C[C@H](O[C@H]4CC[C@@]5(C)[C@H](CC[C@@H]6[C@@H]5CC[C@]5(C)[C@@H](C7=CC(=O)OC7)CC[C@]65O)C4)O[C@@H]3C)O[C@@H]2C)C[C@H](O)[C@@H]1O [digitoxin, reference compound]","> ouabain; F2,6 = 116.84, p < 0.001",,14.8,,,,"= ouabain; F2,6 = 5.07, p = 0.05",,,,1.37
C[C@]12CC[C@H](O)C[C@H]1CC[C@@H]1[C@@H]2C[C@@H](O)[C@]2(C)[C@@H](C3=CC(=O)OC3)CC[C@]12O [digoxigenin],"< ouabain; F2,6 = 30.1, p < 0.001",,379,,,,"< ouabain; F2,6 = 151.91, p < 0.001",,,,11.8
C[C@@H]1O[C@@H](O[C@H]2CC[C@]3(C=O)[C@H]4CC[C@]5(C)[C@@H](c6ccc(=O)oc6)CC[C@]5(O)[C@@H]4CC[C@]3(O)C2)[C@H](O)[C@H](O)[C@H]1O[C@@H]1O[C@H](CO)[C@@H](O)[C@H](O)[C@H]1O [hellebrin],"> ouabain; F2,6 = 1420.98, p < 0.001",,0.842,,,,,,,,
C[C@]12CC[C@H]3[C@@H](CC[C@]4(O)C[C@@H](O)CC[C@]34C=O)[C@@]1(O)CC[C@@H]2C1=CC(=O)OC1 [strophanthidin],"> ouabain; F2,6 = 9.41, p = 0.01",,64.8,,,,,,,,
